# Experimental data published in paper PMC4300529 (Anesthesiology, 2015).
# Legend:
# [1] = system: Xenopus tadpoles; experiment: Xenopus tadpole anesthetic activity; type: in vivo, Xenopus laevis
# [2] = system: mice; experiment: Loss-of-righting reflex anesthetic potency assay in mice; type: in vivo, mice (C57BL/6J)
# [3] = pharmacokinetic profiling; type: in vivo; conditions: data not shown
# [4] = system: mice; conditions: previously reported; cited from earlier work
# [5] = molecular target: apoferritin (Equus caballus, UniProt P02791); experiment: biochemical
# Chain of apoferritin (P02791 2-175 limits assumed): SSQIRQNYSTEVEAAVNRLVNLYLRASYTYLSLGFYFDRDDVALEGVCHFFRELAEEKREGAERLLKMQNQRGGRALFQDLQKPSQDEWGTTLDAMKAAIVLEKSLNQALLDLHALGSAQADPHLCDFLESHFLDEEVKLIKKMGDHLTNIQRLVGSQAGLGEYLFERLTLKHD
SMILES,"anesthetic activity / potency in tadpoles (immobility), in words ([1]; tadpole immobility after 60 minutes exposure, SAR statements to figs 4-6)",mean duration of LoRR ([2]; 100 mg/kg iv) [s],"onset of LoRR ([2]; intravenous, doses roughly twice that of propofol (moles per kilogram)) [s]","LogED50 for LoRR ([2]; iv injection, unit printed only with the propofol value of the same legend) [mmol/kg]","pharmacokinetic profile (uptake, distribution, elimination) [3]",toxicity in tadpoles at 100 μM ([1]; 100 μM),duration of LoRR ([2]; 20 mg/kg (0.11 mmol/kg)),logED50 in mice [4] [mmol/kg],IC50 [5] [µM]
Cc1ccc(-c2ccc(=O)n(CC(=O)NCCc3ccccc3)n2)cc1 [compound 5],optimal anesthetic activity,245 ± 65,< 20,−0.761,"did not show any remarkable patterns of uptake, distribution, or elimination",–,–,–,–
"CC(C)c1cccc(C(C)C)c1O [propofol, reference compound]",–,–,–,–,–,produced death at 100 μM,445 ± 27,−1.03,23
